Source: US9657018B2, “Antagonists acting at multiple prostaglandin receptors for the treatment of inflammation” (Allergan, Inc., priority 2014, dated 2017)

Assays:
Assay type in all cases: cell-based
[1] = biological target: T1, human prostanoid EP2 receptor (Homo sapiens, UniProt P43116); assay: FLIPR Ca2+ signaling antagonist assay, EP2 receptor stable cell line; details: human recombinant EP2 + chimeric Gqs in HEK-293 EBNA cells; standard agonist PGE2; NA = no antagonism or Kb>=10,000 nM
T1 construct: expressed in transfected cells
T1 sequence (P43116 whole entry): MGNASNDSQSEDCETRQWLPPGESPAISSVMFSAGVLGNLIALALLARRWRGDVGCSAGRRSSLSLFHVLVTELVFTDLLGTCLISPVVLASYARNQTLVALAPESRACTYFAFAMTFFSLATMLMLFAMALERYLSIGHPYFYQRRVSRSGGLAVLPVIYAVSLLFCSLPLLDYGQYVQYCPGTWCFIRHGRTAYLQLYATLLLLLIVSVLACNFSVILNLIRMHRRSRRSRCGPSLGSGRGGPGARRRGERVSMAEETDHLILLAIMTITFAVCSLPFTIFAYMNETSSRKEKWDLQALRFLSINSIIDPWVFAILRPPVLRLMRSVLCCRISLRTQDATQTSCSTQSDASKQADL
Procedure: (§1) The above compounds were tested for PG antagonist activity as follows using human recombinant prostanoid receptor (DP1, EP1-4, FP, IP and TP) stable cell lines:
(§2) In order to measure the response of Gs and Gi coupled prostanoid receptors as a Ca^2+ signal, chimeric G protein cDNAs were used. Stable cell lines over-expressing human prostanoid DP1, EP1-4, FP, IP, and TP receptors were established as follows:
(§3) Briefly, human prostanoid DP1, EP2, and EP4 receptor cDNAs were co-transfected with chimeric Gqs cDNA containing a haemagglutanin (HA) epitope; human prostanoid EP3 receptors were co-transfected with chimeric Gqi-HA; human EP1, FP, IP, and TP receptor cDNAs were expressed with no exogenous G-proteins. Gqs and Gqi chimeric cDNAs (Molecular Devices, Sunnyvale, Calif., U.S.A.), as well as cDNAs of prostanoid receptors, were cloned into a pCEP4 vector with a hygromycin B selection marker. Transfection into HEK-293 EBNA (Epstein-Barr virus nuclear antigen) cells was achieved by the FuGENE 6 transfection Reagent (Roche Applied Science, Indianapolis, Ind., USA). Stable transfectants were selected according to hygromycin resistance. Because Gqs and Gqi contained an HA epitope, G-protein expression was detected by Western blotting analysis using anti-mouse HA monoclonal antibody and horseradish peroxidase (HRP)-conjugated secondary antibody, while functional expression of prostanoid receptors was detected by FLIPR screening (Matias et al., 2004). These stable cell lines were validated using previously published antagonists at 10 μM against serial dilutions of standard agonists by FLIPR functional assays for Ca^2+ Signaling (as described below).
(§4) Ca^2+ signaling studies were performed using a FLIPR TETRA system (Molecular Devices, Sunnyvale, Calif., USA) in the 384-format. This is a high-throughput instrument for cell-based assays to monitor Ca^2+ signaling associated with GPCRs and ion channels. Cells were seeded at a density of 5×10^4 cells/well in BioCoat poly-D-lysine coated, black wall, clear bottom 384-well plates (BD Biosciences, Franklin lakes, NJ, USA) and allowed to attach overnight in an incubator at 37° C. The cells were then washed twice with HBSS-HEPES buffer (Hanks' balanced salt solution without bicarbonate and phenol red, 20 mM HEPES, pH 7.4) using an ELx405 Select CW Microplate Washer (BioTek, Winooski, Vt., USA). After 60 min of dye-loading in the dark using the Ca^2+-sensitive dye Fluo-4AM (Invitrogen, Carlsbad, Calif., USA), at a final concentration of 2×10^−6M, the plates were washed 4 times with HBSS-HEPES buffer to remove excess dye and leaving 50 μl of buffer in each well. The plates were then placed in the FLIPR TETRA instrument and allowed to equilibrate at 37° C. AGN-211377 was added in a 25 μl volume to each well to give final concentrations of 0.1 μl. M, 0.4M, 1 μM, 3 μl. M, 10 μl. M, and 30 μl. M; or 0.067 μM, 0.4M, 0.67 μM, and 1 μM for cells over-expressing TP receptors. After 4.5 minutes, a 7-point serial dilution of the standard agonist for the corresponding receptor, in a 25 μl volume was injected at the final concentrations from 10^−11M to 10^−5M in 10-fold serial dilution increments for cells expressing human recombinant DP1, EP1, EP2, EP3, EP4, FP, and IP receptors. The dose range for the standard agonist for human recombinant TP receptors was from 10^−12M to 10^−6M. HBSS-HEPES buffer was used as the negative control for the standard agonists. Cells were excited with LED (light emitting diode) excitation at 470-495 nm and emission was measured through an emission filter at 515-575 nm. Assay plates were read for 3.5 minutes using the FLIPR^TETRA. The peak increase in fluorescence intensity was recorded for each well. On each plate, negative controls, dose response of positive controls, and co-treatments of antagonist-agonist for each dose were in triplicates. Standard agonists were as follows: DP=BW 245C, EP1-EP4=PGE2, FP=17-phenyl-PGF2a, IP=Cicaprost, and TP=U-46619. […]

[2] = biological target: T2, human prostanoid TP receptor (Homo sapiens, UniProt P21731); assay: FLIPR Ca2+ signaling antagonist assay, TP receptor stable cell line; details: human recombinant TP in HEK-293 EBNA cells; standard agonist U-46619; NA = no antagonism or Kb>=10,000 nM
T2 construct: expressed in transfected cells
T2 sequence (P21731 1-343): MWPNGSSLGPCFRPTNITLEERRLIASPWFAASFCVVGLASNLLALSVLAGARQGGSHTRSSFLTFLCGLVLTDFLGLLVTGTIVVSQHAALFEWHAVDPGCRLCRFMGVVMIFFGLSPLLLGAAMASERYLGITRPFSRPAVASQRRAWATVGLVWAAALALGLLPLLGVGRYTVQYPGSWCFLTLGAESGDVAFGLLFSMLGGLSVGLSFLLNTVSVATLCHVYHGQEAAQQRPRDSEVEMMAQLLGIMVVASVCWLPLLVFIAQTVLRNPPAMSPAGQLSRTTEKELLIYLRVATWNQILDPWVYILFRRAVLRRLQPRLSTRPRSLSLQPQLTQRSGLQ
Procedure: as §1, §2, §3, §4

[3] = biological target: T3, human prostanoid FP receptor (Homo sapiens, UniProt P43088); assay: FLIPR Ca2+ signaling antagonist assay, FP receptor stable cell line; details: human recombinant FP in HEK-293 EBNA cells; standard agonist 17-phenyl-PGF2a; NA = no antagonism or Kb>=10,000 nM
T3 construct: expressed in transfected cells
T3 sequence (P43088 whole entry): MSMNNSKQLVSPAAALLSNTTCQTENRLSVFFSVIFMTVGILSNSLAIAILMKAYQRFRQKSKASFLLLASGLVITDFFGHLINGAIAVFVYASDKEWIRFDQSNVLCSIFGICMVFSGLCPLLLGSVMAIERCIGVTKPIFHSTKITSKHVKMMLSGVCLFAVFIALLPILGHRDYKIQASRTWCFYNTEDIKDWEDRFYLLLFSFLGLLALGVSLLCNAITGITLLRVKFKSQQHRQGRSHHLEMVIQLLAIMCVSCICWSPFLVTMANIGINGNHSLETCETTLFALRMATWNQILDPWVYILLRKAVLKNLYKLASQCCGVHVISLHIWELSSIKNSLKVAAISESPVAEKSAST
Procedure: as §1, §2, §3, §4

[4] = biological target: T4, human prostanoid EP1 receptor (Homo sapiens, UniProt P34995); assay: FLIPR Ca2+ signaling antagonist assay, EP1 receptor stable cell line; details: human recombinant EP1 in HEK-293 EBNA cells; standard agonist PGE2; NA = no antagonism or Kb>=10,000 nM
T4 construct: expressed in transfected cells
T4 sequence (P34995 1-402): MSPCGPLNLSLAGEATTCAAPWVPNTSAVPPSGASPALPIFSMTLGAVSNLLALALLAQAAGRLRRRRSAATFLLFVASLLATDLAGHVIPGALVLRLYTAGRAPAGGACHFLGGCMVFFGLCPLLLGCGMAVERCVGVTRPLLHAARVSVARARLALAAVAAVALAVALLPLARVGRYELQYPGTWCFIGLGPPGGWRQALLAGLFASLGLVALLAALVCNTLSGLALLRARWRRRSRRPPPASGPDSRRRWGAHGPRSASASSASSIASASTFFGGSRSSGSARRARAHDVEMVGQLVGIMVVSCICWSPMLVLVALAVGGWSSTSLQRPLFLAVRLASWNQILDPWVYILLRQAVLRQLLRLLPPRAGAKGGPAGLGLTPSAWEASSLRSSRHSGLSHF
Procedure: as §1, §2, §3, §4

Kb [1] [nM]	Kb [2] [nM]	Kb [3] [nM]	Kb [4] [nM]	Structure (SMILES)
> 10000	1300	35	> 10000	CC(C)Cn1ncc2cc(Cl)cc(Cn3nc(N)c4cc(C(=O)O)ccc43)c21 [Compound 68, 3-Amino-1-[(5-chloro-1-isobutyl-indazol-7-yl)methyl]indazole-5-carboxylic acid]
7000	300	17	2300	CNc1nn(Cc2cc(Cl)cc3cnn(CC(C)C)c23)c2ccc(C(=O)O)cc12 [Compound 70, 1-[(5-Chloro-1-isobutyl-indazol-7-yl)methyl]-3-(methylamino)indazole-5-carboxylic acid]
